According to patent publication US20260083704A1, “LXR MODULATORS WITH BICYCLIC CORE MOIETY FOR TREATING DYSLIPIDEMIAS” (OrsoBio, Inc., priority 2022, published 2026):

Tests used:
ApoC3 and ANGPTL3 = assay: Phase 1 study, MAD cohorts: plasma ApoC3 and ANGPTL3 by ELISA; type: in vivo, human; settings: healthy subjects, Day 1 to Day 14, 12 h postdose
Procedure: Lipid parameters, including apolipoprotein B (apoB), were evaluated by NMR LipoProfile® (Labcorp, Burlington, NC. Plasma ApoC3 and ANGPTL3 were evaluated by ELISA (360biolabs, Melbourne, Australia). Peripheral RCT (reverse cholesterol transport) were evaluated by assessing changes in expression of ABCA1/ABCG1 in PBMCs, predose and 4 hours postdose on Days 1 and 14 (Gnomix, Bedford Park, Australia).
In FIG. 14A to 14C, ApoC3 and ANGPTL3 measured 12 h postdose. RCT assessed predose and 4 h postdose on Day 14.

[1] = test system: steatotic human liver organoids (sHLO); assay: Steatotic human liver organoid (sHLO) model; type: cell-based; settings: 3 days
Procedure: Data in FIG. 2A are obtained from (Ouchi, Togo et al. 2019). Data are shown as mean±SD. n=4 wells per treatment.
Activity of Compound 21/3 was also evaluated in an induced pluripotent stem cell (iPSC)-derived human liver organoid (HLO) model established from human donors with different genetic backgrounds, including those with known genetic risk variants for NASH (Ouchi, Togo et al. 2019). The HLOs were exposed to high concentrations of lipid to induce a reproducible steatotic NASH phenotype (sHLO) with increased expression of DNL genes, including NR1H3, the gene that encodes LXRα (FIG. 2A) (Ouchi, Togo et al. 2019, Minniti, Pedrelli et al. 2020). […] Mutations in GCKR have been associated with increased circulating lipids, hepatic DNL, and diseases including diabetes and NASH (Fernandes Silva, Vangipurapu et al. 2019).

[2] = Plasma and liver exposures in mice dosed 1 mg/kg by oral gavage; type: in vivo; settings: 1 mg/kg oral gavage
Procedure: (§1) Data are shown as mean±SD. N=3-8 wells per treatment.
(§2) The efficacy of Compound 21/3 and Compound pre-6/3 were evaluated in diet-induced obese (DIO) mouse and rat models.

[3] = test system: LXR target genes in the liver; assay: Liver LXR target gene expression 24 hours after a single oral dose in mice; type: in vivo; settings: 24 hours post-dose
Procedure: as §1, §2

LXRβ = biological target: T1, LXRβ (Homo sapiens, UniProt P55055); assay: Biochemical binding assay LXRβ; settings: mean ± SD
T1 sequence (P55055 1-460): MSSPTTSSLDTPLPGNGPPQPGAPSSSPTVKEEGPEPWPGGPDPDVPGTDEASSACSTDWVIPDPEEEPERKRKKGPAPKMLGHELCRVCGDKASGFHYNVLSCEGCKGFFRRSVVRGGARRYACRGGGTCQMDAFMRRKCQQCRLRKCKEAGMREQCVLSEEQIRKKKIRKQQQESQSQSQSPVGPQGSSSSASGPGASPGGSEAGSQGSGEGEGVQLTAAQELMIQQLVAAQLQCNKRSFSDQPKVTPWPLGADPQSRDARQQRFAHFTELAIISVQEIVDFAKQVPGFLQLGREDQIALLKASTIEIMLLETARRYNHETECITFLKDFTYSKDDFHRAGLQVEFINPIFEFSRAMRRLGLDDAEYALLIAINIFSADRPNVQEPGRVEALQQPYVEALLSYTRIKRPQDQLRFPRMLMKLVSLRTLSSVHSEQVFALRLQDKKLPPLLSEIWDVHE
Procedure: The potencies of Compound 21/3 and its analog, Compound pre-6/3, against LXRα and LXRβ were evaluated in biochemical binding assays, cellular mammalian two-hybrid (M2H) interaction assays evaluating nuclear receptor co-repressor (NCOR) recruitment, and cellular reporter assays evaluating transcriptional activity (Table 5).

[4] = test system: humanized liver chimeric PXB mice; assay: Humanized liver chimeric PXB mouse model; type: in vivo; settings: 1 mg/kg once daily oral, 8 days
Procedure: Data are shown as mean±SD. N=4-5 animals per group. *p≤0.05, **p≤0.01, ***p≤0.001, ****p≤0.0001 Mann-Whitney test.
Since features of cholesterol metabolism differ between rodents and humans, the humanized liver chimeric PXB® mouse model was utilized to further explore the effects of Compound 21/3 on lipid metabolism in a more relevant nonclinical model (Tateno, Yoshizane et al. 2004). Briefly, PXB mice were treated with either vehicle or Compound 21/3 (1 mg/kg once daily by oral gavage) for 8 days. The pharmacokinetics (PK) data from this study are presented herein. […] Specifically, Compound 21/3 reduced the expression of the cholesterol synthesis gene, HMGCR, as well as in genes that reduce the hepatic uptake of LDL-C (PCSK9, IDOL) and conversion of cholesterol to bile acids (CYP7A1). As expected, marked reductions in ANGPTL3 and DNL-associated genes (SREBP1C, ACACA, FASN, SCD1) were also observed.

DIO mice = assay: Two-step hyperinsulinemic-euglycemic clamp in DIO mice; type: in vivo; settings: 5 mg/kg once daily oral
Text: Data are shown as mean±SD. N=5-11 animals per group. *p≤0.05, **p≤0.01, ***p≤0.001, ****p≤0.0001 vs. vehicle, unless otherwise indicated; ^#p≤0.05 pioglitazone vs. vehicle. Repeated measures Two-way ANOVA with Dunnett's multiple comparisons test (FIG. 7A, FIG. 7D), Two-way ANOVA with Dunnett's multiple comparisons test (FIG. 7B, FIG. 7C). EDL=extensor digitorum longus, GIR=glucose infusion rate, HGP=hepatic glucose production, iWAT=inguinal white adipose tissue.
The effects of chronic dosing of Compound 21/3 and Compound pre-6/3 were evaluated in DIO mice and HFD-fed ZDF rats, respectively. Briefly, C57BL/6 mice were fed a HFD for 16 weeks prior to treatment with Compound pre-6/3 (5 mg/kg) or pioglitazone (30 mg/kg; positive control) once daily by oral gavage. After four weeks of treatment, a two-step hyperinsulinemic-euglycemic clamp along with the infusion of radiotracers to monitor glucose disposal and hepatic glucose production was performed. […] These changes were associated with a reduction in hepatic glucose production in the Compound pre-6/3-treated mice, more evident during the 8 mU/kg/min insulin infusion (FIG. 7B).

Compound	plasma ApoC3 and ANGPTL3 (ApoC3 and ANGPTL3)	intracellular lipid content ([1]; patient-derived sHLOs)	expression of DNL-associated genes ([1]; sHLOs from GCKR wild-type (CC) or mutant (TT) carriers)	liver exposures compared with Compound pre-6/3 [2]	plasma exposures compared with Compound pre-6/3 [2]	target engagement in the liver (expression of LXR target genes) [3]	EC50 (LXRβ)	hepatic TG and TC content [4]	hepatic expression of genes involved in the metabolism of cholesterol and TG ([4]; relative to vehicle)	glucose utilization by muscle versus vehicle (DIO mice; end of the clamp)	glucose infusion rate versus vehicle (DIO mice; four weeks, insulin infusion 8 and 18 mU/kg/min)	hepatic glucose production (DIO mice; four weeks, more evident at 8 mU/kg/min)
N#Cc1cccc(C#N)c1-c1c(-c2cccc(-c3ccc(C(=O)NCC(=O)O)cc3Cl)c2)n(S(=O)(=O)c2ccc(C(F)F)cc2)c2ccc(F)cc12 [Compound 21/3]	reduces	dose-dependently reduced	suppressed	higher and sustained liver exposures	lower plasma exposures	sustained target engagement	15 ± 3 nM	trended to reduce	significantly reduced	–	–	–
N#Cc1cccc(C#N)c1-c1c(-c2cccc(-c3ccc(C(=O)O)cc3Cl)c2)n(S(=O)(=O)c2ccc(C(F)F)cc2)c2ccc(F)cc12 [pre-6/3]	–	–	–	–	–	–	17 ± 7 nM	–	–	significantly higher	significantly higher	reduction
